Data as given in patent US20200199174A1, “NOVEL FLUORESCENT LABELING METHOD” (priority 2017, published 2020).

Key:
[1] = test system: HeLa cells expressing ECFP-5D4; assay: Long-term-stable fluorescence imaging based on tag/probe binding/dissociation equilibrium; conditions: 10 nM probe in extracellular fluid, whole cell irradiated with intense excitation light
Procedure: HeLa cells expressing ECFP-5D4 were immersed for one hour at room temperature in HBS including 10 nM 6SiR-pCOONHMeoNP, and fluorescence imaging thereof was performed without modification of this state with the probe present at a concentration of 10 nM in the extracellular fluid. […] In super-resolution imaging and other fluorescence observation in which photobleaching has hitherto been a serious problem, the tag/probe method developed herein has the revolutionary characteristic of making it possible to obtain a semi-permanent fluorescence signal without limitation by photobleaching.

[2] = test system: ECFP-5D4 (Y96F) with endoplasmic reticulum localization signal in HeLa cells; assay: Super-resolution imaging by single-molecule localization; assay type: cell-based; conditions: 10 nM probe, 640 nm laser, relative to normal fluorescence microscope image
Procedure: An ECFP-5D4 (Y96F) expression plasmid (pECFP-5D4 (Y96F)-ER) to which an endoplasmic reticulum localization signal sequence was added was introduced to HeLa cells cultured on a 96-well plate, using Lipofectamine 2000. At 20 hours after plasmid introduction, the cells were treated with trypsin/EDTA and stripped, and then re-seeded on a cover glass coated with collagen/poly-L-lysine. At 20 hours after re-seeding, the cells were washed with HBS, loaded with 10 nM 6SiR-DNP, and subjected to super-resolution imaging. A specimen was excited using a 640 nm semiconductor laser, and fluorescence intermittency images of a single molecule were continuously acquired at an exposure of 16 milliseconds by a backside-illuminated cooled EM-CCD camera (iXon, Andor Technology). A centroid position of a bright point of single-molecule fluorescence in each image was determined, and a super-resolution image was reconstructed.

5D4 = assay: Fluorescence change characteristics of fluorophore-DNP pair in presence and absence of 5D4; assay type: biochemical, mouse
Procedure: The anti-DNP scFv was expressed and purified as a fusion protein of maltose-binding protein. Escherichia coli BL21 (DE3) was transformed with the pMalc5E vector (pMalc5E-scFv) into which the purification object scFv sequence was introduced, and was cultured overnight on an LB medium plate including 100 μg/mL of ampicillin. A single colony was picked up and cultured overnight in 5 mL of a liquid LB medium including 100 μg/mL of ampicillin, and 1 mL of the resultant culture liquid was transferred to 100 mL of LB medium including 100 μg/mL of ampicillin. Shake culturing was performed at 200 rpm and a temperature of 37° C. until an optical density at 600 nm of 0.8 was reached, and after shake culturing was performed for 30 minutes at 15° C., IPTG was added to give a final concentration of 0.5 mM, and shake culturing was continued overnight. The E. coli were recovered after culturing and were disrupted using a sonicator. […] An eluate was replaced with PBS, and yield was quantified by the Bradford method, after which the eluate was subjected to the measurements described below.
RNA was extracted from the hybridomas of the resultant four clones, and cDNA fragments of the variable regions of the light chains and heavy chains of monoclonal antibodies were obtained by reverse transcription. The cDNA fragments of the variable regions of the light chains and heavy chains were connected via a linker sequence by overlap PCR, and scFv constructs were constructed only from subclones (4E10 and 5D4) derived from wells 1E10 and 3B12, respectively. […] The nucleic acid sequence of the cDNA sequence coding for 5D4 was identified by sequencing (SEQ ID NO: 8), an amino acid sequence determined from the result thereof was analyzed using the IMGT database (http://www.imgt.org/), and a […] region was specified (FIG. 4).
This fluorescence characteristic is similar to that of Cy5 dye, which is widely used in fluorescence imaging in cells. In the presence of 5D4, the fluorescence intensity of 6SiR-DNP was increased by a factor of 98 relative to the fluorescence intensity thereof in the absence of 5D4 (FIG. 6B). When fluorescence quantum yield of 6SiR-DNP in a state in which 6SiR-DNP is bound to 5D4 was measured, the fluorescence quantum yield in the presence of an excess of 5D4 was 0.57. This value for the fluorescence quantum yield is large, and is equal to or greater than that of Cy5 (quantum yield=0.2-0.4) and Cy5.5 (quantum yield=0.24), which are also highly versatile fluorescent dyes in cell labeling experiments (Q. Zheng et al., Ultra-stable organic fluorophores for single-molecule research. Chem Soc Rev 43, 1044-1056 (2014).).

[3] = test system: 5D4 fusion proteins in HeLa cells; assay: Fluorescent labeling of 5D4 fusion proteins expressed in HeLa cells (live cell imaging); assay type: cell-based
Procedure: HEK293T cells and HeLa cells were cultured in Dulbecco's Modified Eagle's Medium (DMEM, Wako) including 10% fetal bovine serum (FBS, SIGMA) at a carbon dioxide concentration of 5% and a temperature of 37° C.
Gene transfer into HeLa cells was performed using lipofection. For the HeLa cells under culture in a 24-well dish, 25 μL of Opti-MEM I (GIBCO) to which 0.5 μg of a plasmid had been added was added to a mixed solution of 2 μL of Lipofectamine 2000 (Invitrogen) and 25 μL of Opti-MEM I and incubated for five minutes at room temperature. This mixture was added to 500 μL of a medium 90-100% confluent with HEK293T cells and HeLa cells, and culturing was performed at 37° C. at a carbon dioxide concentration of 5%. Cell concentration was diluted to 1/10 5 to 8 hours after transfection, and cells were re-seeded on a glass dish. Cells were subjected to various imaging experiments after 24 hours had passed since transfection.
Cells were observed using an inverted microscope (IX-71, Olympus) provided with a xenon arc lamp. Images were captured using an EM-CCD camera (iXon EM+, Andor). During acquisition of a 6SiR-DNP fluorescence image, a Cy5-4040C filter set (Semrock) comprising a 608-648 nm excitation light filter, a 660 nm dichroic mirror, and a 672-712 nm absorption filter was used.
During acquisition of a CFP fluorescence image, a U-MCFPHQ filter set (Olympus) comprising a 424-438 nm excitation light filter, a 450 nm dichroic mirror, and a 460-510 nm absorption filter was used. An objective lens (10×NA 0.3, 20×NA 0.75: Olympus) was used for the screening in FIG. 3, and an oil immersion objective lens (100× NA 1.4: Olympus) was used in the observations in FIGS. 5, 8, 9, and 10.
The HeLa cell medium was drawn up and washed with HBS buffer solution (25 mM HEPES, 125 mM NaCl, 2.5 mM KCl, 2 mM CaCl2, 1 mM MgCl2, and 25 mM D-glucose; pH 7.4), and cells were then observed in the HBS buffer solution including 6SiR-DNP at a concentration of 100 nM or 10 nM. Image capture was started 5 minutes after the 6SiR-DNP was added. Images were analyzed using ImageJ (NIH).
5D4 expressed at an arbitrary site in a cell was labeled with 6SiR-DNP, and the ability to observe a fluorescence image using a fluorescence microscope was investigated. When cells expressing only ECFP were loaded with 6SiR-DNP (FIG. 8A), and when ECFP to which 5D4 was added was expressed in cells but the cells were not loaded with 6SiR-DNP, a fluorescence signal due to 6SiR-DNP was not observed (FIG. 8B).
Using a β-tubulin protein as an observation object, a 5D4 fusion protein expression construct was transgenically introduced into a Hela cell. […] An attempt was also made to observe b-actin in the cell. When a fusion protein of β-actin and 5D4 was expressed in a HeLa cell and the cell was observed, a fibrous structure characteristic of β-actin was observed (FIG. 9B). In order to visualize F-actin internal to the cell, an expression construct in which a peptide sequence (Lifeact sequence) for specifically binding to F-actin was added to the N-terminus of 5D4 was transgenically introduced into a HeLa cell. A characteristic fibrous structure was observed that was similar to the structure observed when a fusion protein of β-actin and 5D4 was expressed in the cell (FIG. 9C).

SMILES | fluorescence signal after photobleaching [1] | super-resolution image of endoplasmic reticulum [2] | fluorescence quantum yield (5D4; bound to 5D4, in the presence of an excess of 5D4) | fluorescence intensity increased by a factor relative to absence of 5D4 (5D4; in the presence of 5D4) | absorption maximum (5D4; when 5D4 was present) [nm] | fluorescence maximum (5D4; when 5D4 was present) [nm] | fluorescent labeling at targeted intracellular sites ([3]; ECFP-5D4 with localization peptide for nucleus, cell membrane, endoplasmic reticulum, final concentration 0.1 μM) | fluorescence image of STIM1-5D4 fusion protein ([3]; HeLa cell stained with 6SiR-DNP) | fluorescence image of tubulin-5D4 fusion protein ([3]; HeLa cell, 6SiR-DNP present in the extracellular fluid) | 6SiR-DNP fluorescence signal ([3]; HeLa cells expressing 5D4 as fusion protein with ECFP) | fluorescence signal due to 6SiR-DNP ([3]; cells expressing only ECFP loaded with 6SiR-DNP)
CNC(=O)c1ccc(NCCOCCOCCNC(=O)c2ccc(C(=O)[O-])c(C3=C4C=CC(=[N+](C)C)C=C4[Si](C)(C)c4cc(N(C)C)ccc43)c2)c([N+](=O)[O-])c1 [6SiR-pCOONHMeoNP, 2-(7-(dimethylamino)-3-(dimethylimino)-5,5-dimethyl-3,5-dihydrodibenzo[b,e]silin-10-yl)-4-((2-(2-(2-((4-(methylcarbamoyl)-2-nitrophenyl)amino)ethoxy)ethoxy)ethyl)carbamoyl)benzoate] | recovery of the fluorescence signal after photobleaching was observed |  |  |  |  |  |  |  |  |  | 
CN(C)c1ccc2c(c1)[Si](C)(C)C1=CC(=[N+](C)C)C=CC1=C2c1cc(C(=O)NCCOCCOCCNc2ccc([N+](=O)[O-])cc2[N+](=O)[O-])ccc1C(=O)[O-] [Probe 6SiR-DNP, 2-(7-(dimethylamino)-3-(dimethylimino)-5,5-dimethyl-3,5-dihydrodibenzo[b,e]silin-10-yl)-4-((2-(2-(2-((2,4-dinitrophenyl)amino)ethoxy)ethoxy)ethyl)carbamoyl)benzoate] |  | visualized with high spatial resolution | 0.57 | 98 | 653 | 668 | fluorescent labeling at the targeted intracellular sites was accomplished for all the cells | a structure running along the endoplasmic reticulum and microtubules was observed | a fibrous structure characteristic of tubulin was observed | observed covering the entire cytoplasm | not observed
